Assay results reported in patent publication US20240353338A1 (priority 2023, published 2024).

Test system: early Delta variant of SARS-CoV-2
Type: cell-based

With `Nc1nnc(Sc2ncc([N+](=O)[O-])s2)s1` [Halicin] the “antiviral effectiveness (virus growth by reverse transcriptase quantitative PCR)” value was “inhibition of virus growth”.
